As a reminder, the EC50 is the midpoint of the concentration-response curve. For orientation: IC50 means the midpoint of a concentration-inhibition curve.

This test concerns CEM cells HIV-1 protection, formazan growth assay. Nature of the test: NCI AIDS Antiviral Assay. To be noted: for IC50: measured here: growth of uninfected CEM cells. The essentials: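 Steps: treat uninfected and HIV-1-infected human CEM cells at five drug levels; quantify growth by soluble formazan; retest any compound reaching 50% protection; classify actives from the retest.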

Each structure is given as a SMILES string. The source made the active and inactive calls.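 How the source made its calls: active means compounds giving half or more protection of infected cells from virus-caused growth loss, again on retest; inactive means the rest.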

On to `O=c1n(C2CCCCC2)c(=C(Cl)Cl)c(=C(Cl)Cl)n1C1CCCCC1`, for which the EC50 was greater than 200 µM and the IC50 is greater than 200 µM.

Consider `O=C1/C(=C/c2ccccc2)CCCC/C1=C\c1ccccc1`, for which the EC50 is greater than 6.92 µM and the IC50 is greater than 6.92 µM.

Regarding `O=C(Nc1ccccn1)Nc1ccccn1`, the EC50 was greater than 200 µM and the IC50 was 107 µM.

As for `Oc1ccccc1C(Nc1nc2ccccc2s1)c1ccc2cccnc2c1O` (configuration not stated), the EC50 is greater than 33.9 µM and the IC50 came out at 2.57 µM.

In the case of `Cn1cc(NC(=O)Nc2cc(C(=O)Nc3cc(C(=O)Nc4ccc(S(=O)(=O)O)c5cc(S(=O)(=O)O)cc(S(=O)(=O)O)c45)n(C)c3)n(C)c2)cc1C(=O)Nc1cc(C(=O)Nc2ccc(S(=O)(=O)O)c3cc(S(=O)(=O)O)cc(S(=O)(=O)O)c23)n(C)c1`, the outcome was active.

For the compound `Cc1cn(CCOCCOC(=O)NC(CCCNC(N)=O)C(=O)O)c(=O)[nH]c1=O` (configuration not stated), the EC50 is greater than 200 µM and the IC50 is greater than 200 µM.

For `CCCc1cc(=O)oc2c(C=O)c(O)cc(O)c12`, the EC50 is greater than 200 µM and the IC50 turned out to be 63.1 µM.

For `OC1CCN2Cc3ccccc3N=C12` (configuration not stated), the EC50 is greater than 200 µM and the IC50 was greater than 200 µM.

Regarding `CCSSC12CCCN1C(=O)C1CCCN1C2=O` (configuration not stated), the EC50 was greater than 200 µM and the IC50 was determined as 15.8 µM.

Turning to `CN(C=O)/C=C/c1cc(O)ccc1O`, the outcome was inactive.

With `O=C(NCCN1CCOCC1)C1(O)N=C(c2ccccc2)c2ccsc2-n2cccc21` (configuration not stated), the EC50 was greater than 200 µM and the IC50 is 123 µM.

As for `O=C1C(Cl)=C(Cl)C(=O)N1C1C2CC3CC(C2)CC1C3` (configuration not stated), the outcome was inactive.

Regarding `NC(CCC(=O)NC(CSSCCCCS(=O)O)C(=O)NCC(=O)O)C(=O)O` (configuration not stated), the result was inactive.

For the compound `O=C(/C=C/c1ccccc1)c1cc(C(=O)/C=C/c2ccccc2)c(O)cc1O`, the EC50 is greater than 200 µM and the IC50 turned out to be 69.2 µM.

As to `O=C1OC(Cl)(C(Cl)(Cl)Cl)C(=O)OC1(Cl)C(Cl)(Cl)Cl` (configuration not stated), the EC50 is greater than 200 µM and the IC50 is greater than 200 µM.

Take `COc1c(C(=O)c2cc(Cl)cc(S(=O)(=O)N(C)C=O)c2OC)cc(Cl)cc1S(=O)(=O)N(C)C=O`: the EC50 was greater than 46.8 µM and the IC50 is greater than 46.8 µM.

For `OC(c1cc2ccccc2o1)c1cc2ccccc2s1` (configuration not stated), the EC50 is greater than 200 µM and the IC50 came to 51.3 µM.

On to `COC(=O)c1cc2c(c(C(=O)OC)c1)CCC2`, for which the EC50 was greater than 200 µM and the IC50 turned out to be 40.7 µM.

For `O=C(O)CCN1c2ccccc2Sc2ccccc21`, the EC50 is greater than 479 µM and the IC50 is 170 µM.

With `O=C(c1ccccc1)c1c(O)c2ccccc2oc1=O`, the result was inactive.

Consider `CC1(C)CCC2=C(C1)Nc1ccc(Cl)cc1NC2c1ccc([N+](=O)[O-])cc1` (configuration not stated), for which the EC50 is greater than 200 µM and the IC50 came to 24.5 µM.

For `CCN(CC)C(=S)SCn1nc(Cl)c2ccc([N+](=O)[O-])cc21`, the EC50 is greater than 69.2 µM and the IC50 worked out at 40.7 µM.

Consider `Cc1nc2c(nc1C)C(=O)C(Cl)=CC2=O`, for which the result was inactive.

In the case of `N#Cc1c(O)cc(=O)n2c1[nH]c1ccccc12`, the EC50 was greater than 200 µM and the IC50 is 174 µM.

On to `N#C/C(=C\c1cc(O)c(O)c(O)c1)C(=O)NCCCNC(=O)/C(C#N)=C/c1cc(O)c(O)c(O)c1`, for which the EC50 was greater than 132 µM and the IC50 was 21.4 µM.

On to `COc1ccccc1NC(=O)C(=O)C(C#N)CC(C)(C)C=O` (configuration not stated), for which the EC50 was greater than 85.1 µM and the IC50 was greater than 85.1 µM.

For `Cc1cccc2c1C/C(=C\c1cccc(C)c1C(=O)O)C2=O`, the result was inactive.

In the case of `Cc1cccc(C)c1NC(=S)/N=C\c1c(O)[nH]c(=O)[nH]c1=O`, the EC50 is greater than 200 µM and the IC50 was greater than 200 µM.

As to `CNC(C#N)c1ccc(OC)cc1` (configuration not stated), the EC50 is greater than 200 µM and the IC50 worked out at 105 µM.

As for `CCOc1ccc(/C(C)=N/NC(N)=S)cc1`, the outcome was inactive.

Regarding `C/C=C/C(C#N)O[Si](C)(C)C` (configuration not stated), the outcome was inactive.

For the compound `O=c1n(CCCCn2c(=O)n(CC3CS3)c3ccccc32)c2ccccc2n1CC1CS1` (configuration not stated), the EC50 was greater than 28.8 µM and the IC50 came to 9.12 µM.

For the compound `CC12CCC([C@H](N3CCOCC3)/C1=N\OCCN1CCCC1)C2(C)C` (some centres not stated), the EC50 was greater than 251 µM and the IC50 came out at 138 µM.

With `O=c1ccn(CC2(CO)CC(Cc3ccccc3)C2)c(=O)[nH]1` (configuration not stated), the EC50 was greater than 200 µM and the IC50 is greater than 200 µM.

With `CC(=O)C(C)(O)C(OP(=O)(O)O)c1ccccc1` (configuration not stated), the EC50 was greater than 200 µM and the IC50 is greater than 200 µM.

Turning to `COc1ccc(NC(=O)CC(=O)N/N=C/c2ccc(N(CCC#N)S(=O)(=O)c3ccccc3)cc2)cc1`, the EC50 is greater than 251 µM and the IC50 was greater than 251 µM.

Turning to `O=S(=O)(NC1CCCCC1)c1ccc2c(c1)OCCOCCOCCOCCO2`, the EC50 is greater than 200 µM and the IC50 was greater than 200 µM.

On to `C/C(O)=C(\C=N\C(=S)Nc1ccccc1)C(=O)Nc1ccc(Cl)cc1`, for which the outcome was inactive.

As for `Cc1cccnc1NC(=O)NCCCl`, the EC50 is greater than 200 µM and the IC50 is greater than 200 µM.

As to `O=Nc1ccc(O)c2ncccc12`, the result was inactive.

Regarding `O=C(O)c1cc(C(=C(c2cc(Cl)c(O)c(C(=O)O)c2)c2cc(Cl)c(O)c(C(=O)O)c2)c2cc(Cl)c(O)c(C(=O)O)c2)cc(Cl)c1O`, the EC50 is 87.1 µM and the IC50 came to 95.5 µM.

`CN(C)c1ccc(/C=C2\C=Nc3ccccc32)cc1`: the EC50 was greater than 20.9 µM and the IC50 came out at 14.1 µM.

As to `O=C(/C=C/c1ccsc1)c1ccco1`, the EC50 is greater than 200 µM and the IC50 came to 11 µM.

With `OCC1COc2cc(Cl)c(Cl)cc2O1` (configuration not stated), the EC50 was greater than 200 µM and the IC50 worked out at 120 µM.

Take `Cc1c([N+](=O)[O-])oc2c1C(=O)N([N+](=O)[O-])CCC2`: the EC50 was greater than 89.1 µM and the IC50 was greater than 89.1 µM.

Consider `CCOC(=O)Cn1c2ccc(Br)cc2c2nc3ccccc3nc21`, for which the EC50 is greater than 100 µM and the IC50 is greater than 100 µM.

As for `CC(/C=C/c1ccccc1)=N\NC(=S)N/N=C(C)/C=C/c1ccccc1`, the EC50 is greater than 200 µM and the IC50 was 4.07 µM.

As to `N#CC(C#N)=Cc1ccc(F)cc1`, the EC50 was greater than 79.4 µM and the IC50 is greater than 79.4 µM.

As to `OCc1c(-c2cccc3ccccc23)sc(-c2cccc3ccccc23)c1CO`, the outcome was inactive.

With `Brc1ccc(-c2cc3c(cc2C2SCCS2)OCO3)cc1`, the EC50 is greater than 67.6 µM and the IC50 is greater than 67.6 µM.

Consider `CN(C(=O)C12C3C4C1C1C2C3C41C#N)C(C)(C)C` (configuration not stated), for which the EC50 was greater than 41.7 µM and the IC50 is greater than 41.7 µM.

Consider `CCc1nc2c(O)ccc(O)c2nc1C`, for which the EC50 was greater than 178 µM and the IC50 was 10.5 µM.

Take `CN(C)CC[PH+](c1ccccc1)c1ccccc1.CN(C)CC[PH+](c1ccccc1)c1ccccc1.[Cl-].[Pd+2]`: the EC50 is greater than 200 µM and the IC50 is greater than 200 µM.

In the case of `O=C1NC(=O)C(=CN2C(=O)/C(=C/c3ccc(O)cc3)SC2=S)C(=O)N1`, the EC50 is greater than 200 µM and the concentration for half-maximal inhibition (IC50) worked out at 41.7 µM.

On to `O=C1[C@@H]2C(c3ccccc3F)=NO[C@@H]2C(=O)N1c1ccc(Cc2ccc(N3C(=O)[C@H]4C(c5ccccc5F)=NO[C@H]4C3=O)cc2)cc1`, for which the EC50 was greater than 8.32 µM and the IC50 was greater than 8.32 µM.

Regarding `[NH-]CC[NH-].[NH-]CC[NH-].[NH-]CC[NH-].[Ni+2].[O-][Cl+3]([O-])([O-])O`, the EC50 is greater than 200 µM and the IC50 was 77.6 µM.

In the case of `Nc1nc2c(ncn2COCCO)c(=O)[nH]1`, the EC50 was greater than 794 µM and the IC50 was greater than 794 µM.

As to `CC(CCc1ccc2c(c1)c(=N)c1ccc(N)cc1n2O)CC(C)(C)C` (configuration not stated), the outcome was inactive.

On to `COc1cccc(/C=N/[N-]C(N)=O)c1[O-].[Cu+2].[OH3+].c1cnc2c(c1)ccc1cccnc12`, for which the EC50 is greater than 39.8 µM and the IC50 is 16.2 µM.

Take `COc1cc(/C=C2\C=Cc3ccccc32)ccc1N(C)C`: the EC50 is greater than 36.3 µM and the IC50 was found to be 24 µM.

As for `Cc1cc(C)c(-n2c(-c3ccc(Br)cc3)cs/c2=N\N=C2C=C(C(C)(C)C)C(=O)C(C(C)(C)C)=C2)c(C)c1`, the EC50 is greater than 2.45 µM and the IC50 is greater than 2.45 µM.

As for `CCC[CH2][Sn]1([CH2]CCC)[O]CC(CN2CCCC2)[O]1` (configuration not stated), the EC50 is greater than 34.7 µM.

As for `Clc1cccc(N=C/C=C/Nc2cccc(Cl)c2)c1`, the EC50 is greater than 200 µM and the IC50 was 30.9 µM.

As to `S=C1SCN(C2CCCCCCCCCCC2)CN1C1CCCCCCCCCCC1`, the result was inactive.

Turning to `CCOC(=O)c1c2c(n3ccc(C)cc13)C(=O)C(c1ccc([N+](=O)[O-])cc1)S2` (configuration not stated), the result was inactive.

Turning to `CCOC(=O)C(CS)NC(=O)CCCCCCCC(=O)NC(CS)C(=O)OCC` (configuration not stated), the EC50 is greater than 200 µM and the IC50 worked out at 102 µM.

In the case of `Cc1cccc(C)c1NC(=S)NC=C(C(N)=O)C(N)=O`, the EC50 was greater than 200 µM and the IC50 was greater than 200 µM.

`Cn1c(=O)c2nc3c(=O)n(C)c(=O)n(C)c3nc2n(C)c1=O`: the EC50 is greater than 200 µM and the IC50 was found to be 79.4 µM.

Turning to `CCSC(=O)/C=C1\CN(C(=O)OC(C)(C)C)C1C(=O)OC(C)(C)C` (configuration not stated), the EC50 was greater than 200 µM and the IC50 turned out to be 1.1 µM.

On to `O=[N+]([O-])c1ccc(/C=c2\sc3scc(-c4ccc([N+](=O)[O-])cc4)[n+]3\c2=C/c2ccc([N+](=O)[O-])cc2)cc1`, for which the EC50 was greater than 200 µM and the IC50 turned out to be 97.7 µM.

As for `COc1ccc(Cc2nnc3nc(OC)c(-c4ccc(OC)cc4)n3n2)cc1`, the EC50 is greater than 50.1 µM and the IC50 was greater than 50.1 µM.

With `O=C(CC(=O)Nc1ccccc1)Nc1ccccc1`, the EC50 is greater than 102 µM and the IC50 was greater than 102 µM.

For the compound `CC(C)(C)c1cc(Nc2c([N+](=O)[O-])cc([N+](=O)[O-])cc2[N+](=O)[O-])cc(C(C)(C)C)c1O`, the EC50 is greater than 16.6 µM and the IC50 was greater than 16.6 µM.

Turning to `COc1cccc(OC)c1NC1=NCCO1`, the EC50 was greater than 200 µM and the IC50 was 120 µM.
